From patent US12679846B2, “Xanthone compound having excellent anticancer effect” (KOREA INSTITUTE OF OCEAN SCIENCE & TECHNOLOGY, priority 2021, dated 2026)

Tests used:
[1] = tested on: HCT-15 (colon cancer); test: Cytotoxicity test against cancer cell lines (SRB assay), HCT-15; assay type: cell-based; details: Homo sapiens, HCT-15, 48 hours
Description: (§1) Human cancer cell lines HCT-15 (colon cancer), NUGC-3 (stomach cancer), NCI-H23 ([…]), ACHN (kidney cancer), PC-3 (prostate cancer), and MDA-MB-231 (breast cancer) were purchased and used from American Type Culture Collection (Manassas, VA).
(§2) Each of the cancer cell lines was cultured in RPMI 1640 supplemented with 10% fetal bovine serum (FBS) at 37° C. in a humidified atmosphere of 5% CO2. Growth inhibition was evaluated for human cancer cell lines using a sulforhodamine B (SRB) assay. The cells were dispensed in a 96-well plate at a density of 8000 cells/well, and the next day, the cells were treated with each of Examples 1 and 2 (0.1% DMSO as vehicle control), and a positive control group was treated with Adriamycin. The cells were cultured for 48 hours, and then each culture medium was fixed with 50% trichloroacetic acid ([…]) and stained using 0.4% sulforhodamine B in 1% acetic acid. An unbound dye was washed with 1% acetic acid, and the dye bound to a protein was extracted with 10 mM Tris base (pH 10.5) to determine the optical density. Absorbance at 540 nm was determined using a VersaMax microplate reader (Molecular Devices, LLC, Sunnyvale, CA, USA). GI50 values were calculated using GraphPad Prism 4.0 software (GraphPad Software, Inc., San Diego, CA, USA), and the results are described in Table 2 below.

[2] = tested on: NUGC-3 (stomach cancer); test: Cytotoxicity test against cancer cell lines (SRB assay), NUGC-3; assay type: cell-based; details: Homo sapiens, NUGC-3, 48 hours
Description: as §1, §2

[3] = tested on: NCI-H23; test: Cytotoxicity test against cancer cell lines (SRB assay), NCI-H23; assay type: cell-based; details: Homo sapiens, NCI-H23, 48 hours
Description: as §1, §2

[4] = tested on: ACHN (kidney cancer); test: Cytotoxicity test against cancer cell lines (SRB assay), ACHN; assay type: cell-based; details: Homo sapiens, 48 hours
Description: as §1, §2

[5] = tested on: PC-3 (prostate cancer); test: Cytotoxicity test against cancer cell lines (SRB assay), PC-3; assay type: cell-based; details: Homo sapiens, PC-3, 48 hours
Description: as §1, §2

[6] = tested on: MDA-MB-231 (breast cancer); test: Cytotoxicity test against cancer cell lines (SRB assay), MDA-MB-231; assay type: cell-based; details: Homo sapiens, MDA-MB-231, 48 hours
Description: as §1, §2

[7] = tested on: various types of cancer cell lines; test: Cytotoxicity test (SRB assay), summary over the six cancer cell lines; assay type: cell-based; details: Homo sapiens; range over six cancer cell lines; read-out: GI50 values ranging (over the cell lines of Table 2)
Description: as §1, §2

[8] = tested on: human-derived breast cancer cell line MDA-MB-231; test: Anticancer effect in animal test on breast cancer cell line (MDA-MB-231) transplanted in nude mice; assay type: in vivo, BALB/C nude mouse; details: for Inhibition rate (tumor size, vs Control group); tumor growth inhibition: day 23 (last day)
Description: Cancer cells (human-derived breast cancer cell line MDA-MB-231) that had been frozen-stored in liquid nitrogen were thawed and then cultured. The cells were cultured in a CO2 incubator (NuAire, USA) at a temperature of 37° C. and a CO2 concentration of 5%.
Lineage and Sex: Specific pathogen-free (SPF) BALB/C strain and female nude mouse (Orient Bio Co., Ltd.)
Week-old: Age at time of obtainment—5 week-old/Age at time of cancer cell transplantation—6 week-old/Age at time of drug administration—7 week-old
On the final day of cancer cell culture, all cancer cells were collected and counted, and the cell concentration was adjusted to 3×10^7 cells/ml using serum free media. 0.3 ml (9×10^6 cells/mouse) of the cell culture medium adjusted in this way per mouse was injected subcutaneously in the axillary area between the right scapular region and chest wall.
Calculation of Tumor Size Changes
After cancer cell transplantation, until the 23rd day since the average tumor size for each group reached about 14.2 mm^3, tumor sizes were measured a total 11 times in three directions using Vernier calipers for each individual, and then expressed in Equation of length×width×height/2.
On the 23rd day after the start of drug administration, all subjects were killed using CO2 gas, and the tumors were separated, weighed on chemical balance, and photographed.
Statistical analysis was performed using GraphPad Prism software from GraphPad Software. Changes in body weight and tumor volume according to a day were analyzed using a Bonferroni multiple comparison test after two-way ANOVA, and tumor weight on the final day was analyzed using a Dunnett's multiple comparison test after one-way ANOVA.

[9] = General symptoms and autopsy findings in MDA-MB-231 cancer cell transplant nude mice; details: 2 mg/kg repeatedly intraperitoneally
Description: Preparation and Administration of Experimental Substances Samples were prepared for administration in Examples 1 and 2. Each of the two compounds prepared above was dissolved in dimethylacetamide (DMAC) to make 0.1 mg/ml of a stock, and then 10% tween80 and 20% HPβCD 80% were added stepwise to a 10% DMAC stock to be prepared at a final concentration of 0.01 mg/ml, and as a comparison group for comparison of anticancer effects, doxorubicin was dissolved in physiological saline to prepare an experimental substance at a concentration of 0.2 mg/ml. The prepared experimental substance was repeatedly administered intraperitoneally total 18 times by 0.2 ml per 20 g of the mouse, 5 times a week on a dosing schedule (days 0 to 4, 7 to 11, 14 to 19, 21 to 23).

[10] = day 2, 0.1 mg/kg intraperitoneally
[11] = day 4, 0.1 mg/kg intraperitoneally
[12] = day 7, 0.1 mg/kg intraperitoneally
[13] = day 9, 0.1 mg/kg intraperitoneally
[14] = day 11, 0.1 mg/kg intraperitoneally
[15] = day 14, 0.1 mg/kg intraperitoneally
[16] = day 16, 0.1 mg/kg intraperitoneally
[17] = day 18, 0.1 mg/kg intraperitoneally
[18] = day 21, 0.1 mg/kg intraperitoneally
[19] = day 23, 0.1 mg/kg intraperitoneally
[20] = day 2, 2 mg/kg intraperitoneally
[21] = day 4, 2 mg/kg intraperitoneally
[22] = day 7, 2 mg/kg intraperitoneally
[23] = day 9, 2 mg/kg intraperitoneally
[24] = day 11, 2 mg/kg intraperitoneally
[25] = day 14, 2 mg/kg intraperitoneally
[26] = day 16, 2 mg/kg intraperitoneally
[27] = day 18, 2 mg/kg intraperitoneally
[28] = day 21, 2 mg/kg intraperitoneally
[29] = day 23, 2 mg/kg intraperitoneally

Work on `COc1ccc2c(=O)c3c(O)c4c(c(O)c3oc2c1OC)CCc1c(OC2OC(C)C(OC)C(OC)C2OC)c2c(c(O)c1-4)C(=O)OC(C)C2` (stereo not shown) [Example 2, 8,15,16-trihydroxy-10,11-dimethoxy-3-methyl-5-((3,4,5-trimethoxy-6-methyltetrahydro-2H-pyran-2-yl)oxy)-3,4,6,7-tetrahydropyrano[4′,3′:6,7]naphtho[1,2-b]xanthene-1,14-dione] yielded a GI50 [1] of 5 nM, a GI50 [2] of 3 nM and a GI50 [3] of 4 nM. It also gave a GI50 [4] of 5 nM, a GI50 [5] of 3 nM and a GI50 [6] of 4 nM. For the same compound, the GI50 [7] was 3 to 5 nM, the “Tumor size (Δt = Vt − Vo)” value ([8]; day 0, 0.1 mg/kg intraperitoneally) was 0 mm^3 and the “Inhibition rate (tumor size, vs Control group)” value [8, 10] was 53.2%. For the same compound, the “Tumor size (Δt = Vt − Vo)” value [8, 10] was 5.8 mm^3, the “Inhibition rate (tumor size, vs Control group)” value [8, 11] was 59.3% and the “Tumor size (Δt = Vt − Vo)” value [8, 11] was 10.1 mm^3. The “Inhibition rate (tumor size, vs Control group)” value [8, 12] was 51.6%, the “Tumor size (Δt = Vt − Vo)” value [8, 12] was 23.6 mm^3 and the “Inhibition rate (tumor size, vs Control group)” value [8, 13] was 49.3%. The “Tumor size (Δt = Vt − Vo)” value [8, 13] was 30.1 mm^3, the “Inhibition rate (tumor size, vs Control group)” value [8, 14] was 43.3% and the “Tumor size (Δt = Vt − Vo)” value [8, 14] was 53.1 mm^3. The “Inhibition rate (tumor size, vs Control group)” value [8, 15] was 50.7%, the “Tumor size (Δt = Vt − Vo)” value [8, 15] was 96.9 mm^3 and the “Inhibition rate (tumor size, vs Control group)” value [8, 16] was 57.9%. The “Tumor size (Δt = Vt − Vo)” value [8, 16] was 155.5 mm^3, the “Inhibition rate (tumor size, vs Control group)” value [8, 17] was 46.1% and the “Tumor size (Δt = Vt − Vo)” value [8, 17] was 297 mm^3. The “Inhibition rate (tumor size, vs Control group)” value [8, 18] was 54.6%, the “Tumor size (Δt = Vt − Vo)” value [8, 18] was 447.7 mm^3 and the “Inhibition rate (tumor size, vs Control group); tumor growth inhibition” value ([8]; 0.1 mg/kg intraperitoneally) was 56.7%. The “Inhibition rate (tumor weight, vs Control group); reduction in tumor weight” value [8, 19] was 52.8%, the “Tumor size (Δt = Vt − Vo)” value [8, 19] was 593.3 mm^3 and the “Tumor weight on final day” value [8, 19] was 1033.4 mg.

Compound `COc1cccc2c1C(=O)c1c(O)c3c(c(O)c1C2=O)C[C@@](O)(C(=O)CO)C[C@@H]3O[C@H]1C[C@H](N)[C@H](O)[C@H](C)O1` [doxorubicin] has a GI50 [1] of 153 nM, a GI50 [2] of 145 nM and a GI50 [3] of 139 nM. It also gave a GI50 [4] of 151 nM, a GI50 [5] of 137 nM and a GI50 [6] of 146 nM. For the same compound, the “Tumor size (Δt = Vt − Vo)” value ([8]; day 0, 2 mg/kg intraperitoneally) was 0 mm^3, the “Inhibition rate (tumor size, vs Control group)” value [8, 20] was 65.3% and the “Tumor size (Δt = Vt − Vo)” value [8, 20] was 4.3 mm^3. For the same compound, the “Inhibition rate (tumor size, vs Control group)” value [8, 21] was 64%, the “Tumor size (Δt = Vt − Vo)” value [8, 21] was 8.9 mm^3 and the “Inhibition rate (tumor size, vs Control group)” value [8, 22] was 67.8%. For the same compound, the “Tumor size (Δt = Vt − Vo)” value [8, 22] was 15.7 mm^3, the “Inhibition rate (tumor size, vs Control group)” value [8, 23] was 67.9% and the “Tumor size (Δt = Vt − Vo)” value [8, 23] was 19.1 mm^3. The “Inhibition rate (tumor size, vs Control group)” value [8, 24] was 70.4%, the “Tumor size (Δt = Vt − Vo)” value [8, 24] was 27.7 mm^3 and the “Inhibition rate (tumor size, vs Control group)” value [8, 25] was 80.5%. For the same compound, the “Tumor size (Δt = Vt − Vo)” value [8, 25] was 38.3 mm^3, the “Inhibition rate (tumor size, vs Control group)” value [8, 26] was 83% and the “Tumor size (Δt = Vt − Vo)” value [8, 26] was 62.7 mm^3. The “Inhibition rate (tumor size, vs Control group)” value [8, 27] was 83.3%, the “Tumor size (Δt = Vt − Vo)” value [8, 27] was 92 mm^3 and the “Inhibition rate (tumor size, vs Control group)” value [8, 28] was 77.5%. The “Tumor size (Δt = Vt − Vo)” value [8, 28] was 222.1 mm^3, the “Inhibition rate (tumor size, vs Control group); tumor growth inhibition” value ([8]; 2 mg/kg intraperitoneally, listed as Comparison group, 2 mg/kg) was 79% and the “Inhibition rate (tumor size, vs Control group); tumor growth inhibition” value ([8]; 2 mg/kg intraperitoneally, listed as comparison group, 2 mg/kg) was 79.0%. The “Inhibition rate (tumor weight, vs Control group); reduction in tumor weight” value [8, 29] was 75.9%, the “Tumor size (Δt = Vt − Vo)” value [8, 29] was 287.9 mm^3 and the “Tumor weight on final day” value [8, 29] was 527.9 mg. For the same compound, the “General symptoms during administration and organs upon necropsy on the final day” value [9] was “no abnormal findings”.
